Columns and labels:
[1] = system: CE1 from pig's liver; experiment: Carboxyl esterase activity on different ethyl esters (1H NMR); assay type: biochemical; conditions: 26 μmol substrate, pH 7.5, 37° C., 60 min
Procedure: The experiments were performed with commercially available CE1 from pig's liver.
The ethyl esters used as substrates are: ethyl acetoacetate (EAA); ethyl acetate (EA); ethyl butyrate (EB); ethyl pyroglutamate (EPG); ethyl pyruvate (EP); diethyl succinate (DES).
Individual samples of the substrates were all made in the following way: 26 μmol was weighted in an eppendorf tube. 550 μl deuterated phosphate buffer (200 mM, pH 7.5) was added and the substrate was brought into solution by whirl mixing. The solution was transferred to a 5 mm NMR tube and inserted in the spectrometer at 37° C. A reference experiment was acquired on the substrate solution without enzyme after which 10 μl of an esterase stock solution (37 U/ml in deuterated phosphate buffer) was added in the top of the tube. The sample was mixed and returned to the spectrometer. A series of thermal 1D 1H NMR experiments were recorded every 5 min for 60 min. The data were analyzed and presented as peak intensity of the product scaled to the peak intensity of the substrate signal in the first spectrum.

[2] = system: carboxylesterase; experiment: General carboxylesterase activity in sonicated cancer cells (spectrophotometric, NA substrate); assay type: biochemical; conditions: liver cancer cells (rat and human) and prostate cancer cells; 1 mM substrate, 10 min, 30 degrees
Procedure: General carboxylesterase activity was determined spectrophotometrically using the carboxylesterase substrate 1-naphthyl acetate (NA) as described previously (Rudakova, 2011). Briefly, sonicated cells were incubated with 1 mM substrate in 150 mM phosphate buffer (pH 7.5), and generation of 1-naphtol was monitored at 322 nm and quantified from its extinction coefficient (2200 M−1 cm−1). The reaction is allowed to take place for 10 min at 30 degrees. […] Cells of different origin (rat hepatoma, Morris; human hepatoma, HepG2; human prostate carcinoma, PC-3; human breast carcinoma, MCF-7) were harvested and redissolved in phosphate buffer to a concentration of 10 million cells/ml. The sample composition was as follows: 923 μl phosphate buffer (150 mM pH 7.3)+77 μl NA solution (13 mM in acetone)+100 μl cells in suspension. The absorbance of the samples were compared to reference samples where acetone was added instead of substrate. The esterase activity was calculated using the extinction coefficient ε322=2200 M^−1 cm^−1.

[3] = system: rat cancer cells; experiment: Concentration dependent metabolism of hyperpolarized substrates in rat cancer cells; assay type: cell-based; conditions: approx. 1, 3.5 and 10 mM, 10 million cells, maximum peak intensity
Text: In all experiments 10 million cells were used. The experimental set-up from Example 2.b was applied. Data are shown as maximum peak intensity of either substrate or metabolite signals.

[4] = DNP conversion of hyperpolarized substrates in human blood; assay type: in vitro ADME; conditions: 2.5 ml human blood, approx. 5 mM substrate
Procedure: (§1) In all experiments 2.5 ml human blood or 2.5 ml rat blood was used. […] Data are presented as area under the curve of the metabolites divided by the substrate signal in the first spectrum and multiplied by 100 to obtain the unit, DNP conversion in percentage.

[5] = DNP conversion of hyperpolarized substrates in rat blood; assay type: in vitro ADME; conditions: 2.5 ml rat blood, approx. 5 mM substrate
Procedure: as §1

[6] = system: carboxylesterase; experiment: In vivo 13C CSI in rat liver with implanted Morris7777 tumor
Procedure: 4 anesthetized Buffalo rats were injected under the hepatic capsula of the liver left lobe with one million McA-RH7777 cells suspended in 0.2 mL of Dulbecco's Modified Eagle's Medium (DMEM) medium.
The sample was dissolved in 5 ml TRIS buffer (40 mM, pH 7) added with EDTA 100 mg/I. The pH after dissolution was 7.5.
Chemical Shift Imaging (CSI) maps were acquired on a approx. 8 mm coronal slice placed in the abdominal region of the rat. The in plane field of view was set to 40×55 mm^2 and the corresponding matrix size was 14×14.

[7] = anesthetized rat; cited from earlier work
[8] = system: rat liver cancer cells (Morris7777); experiment: In cell DNP conversion of hyperpolarized substrate in rat liver cancer cells; assay type: cell-based; conditions: whole Morris7777 cells, 10 million cells, 3.5 mM substrate, 37° C.
Procedure: (§2) To the solution was added a DMSO solution of gadolinium complex [[α1,α4,α7-tris[(phenylmethoxy)methyl]-1,4,7,10-tetraazacyclododecane-1,4,7,10-tetraacetate(4-)]gadolinate(1-)]hydrogen (1.1 mg of a 100 μmol/g solution). The concentration of radical and gadolinium were 17 mM and 2.3 mM respectively.
(§3) B) 30 μmol of solution A) was hyperpolarized. The sample was dissolved in 5 ml phosphate buffer (40 mM, pH 7.3). The pH after dissolution was 7.3.
(§4) A) 10 million cells (either rat liver cancer cells (Morris7777) or human liver cancer cells (HEP-G2)) were harvested and redissolved in […] phosphate buffer (PBS). The cells in suspension were transferred to a 10 mm NMR tube and placed with a connecting tubing in a 14.1 T magnet at 37° C.
(§5) A series of 30 degree pulses every 2 s (56 scans in total) was acquired. The acquisition was started just before injection of the hyperpolarized substrate.
The two substrates were co-polarized without mixing the substrates. Following dissolution in 5 ml phosphate buffer (40 mM pH 7.3) with addition of 2.5 μl NaOH to neutralize the pyruvic acid (which is thus converted into the pyruvate anion form), the substrate mixture was injected into 10 million cells in suspension. The experiment was performed as described in Example 2.b. […]

[9] = system: human liver cancer cells (HepG2); experiment: In cell DNP conversion of hyperpolarized substrate in human liver cancer cells; assay type: cell-based; conditions: whole HepG2 cells, 10 million cells, 3.5 mM substrate, 37° C.
Procedure: as §2, §3, §4, §5

[10] = system: carboxylesterase; experiment: In vivo localized dynamic 13C MRS in healthy liver and liver cancer; design: species or system rat; conditions: 0.4 mmol/kg i.v.
Procedure: One million McA-RH7777 cells have been suspended in 0.2 mL of Dulbecco's Modified Eagle's Medium (DMEM) and injected under the hepatic capsula of the liver left lobe of anesthetized Buffalo rats.
The sample was dissolved in 5 ml TRIS buffer (40 mM, pH 7) added with EDTA 100 mg/l. The pH after dissolution was 7.5.
A total of 8 animals were used in the study. 4 rats were implanted with the tumour (i.e. tumour group) whereas the remaining animals were used as controls (i.e. liver group) in order to have a comparison between healthy and diseased tissue on the same strain. The metabolic fate of injected ethyl [1,3-^13C2]-acetoacetate was followed by means of a localised spectroscopy sequence which allows a selective acquisition of either tumour or healthy liver tissue. Acquisition started just before injecting the hyperpolarized substrate and comprised a series of 64 time-domain points sampled at a rate of 3 s. The applied flip angle was equal to 10 degrees.

[11] = non-tumor and tumor bearing mice; cited from earlier work

For `CCOC(=O)[C@@H]1CCC(=O)N1` [ethyl pyroglutamate], the “conversion (turnover) by CE1” value [1] was “barely detectable”.

In the case of `CCOC(=O)CCC(=O)OCC` [diethyl succinate], the “conversion (turnover) by CE1” value [1] is reported as “overall fastest converted substrate”.

For `CCCC(=O)OCC` [ethyl butyrate], the “factor by which diethyl succinate is converted faster than this substrate” value (shortened to “factor”) [1] was about 2.

For `CCOC(=O)C(C)=O` [ethyl pyruvate, reference compound], the “conversion (turnover) by CE1” value [1] was “no conversion at all could be measured”.

With `CCOC(=O)CC(C)=O` [ethyl acetoacetate] the “carboxyl esterase activity (capacity of cells to hydrolyse substrate)” value [2] was “up to 95 mU/million cells”, the “change of metabolite signal with increasing substrate concentration” value [3] was “increases almost quantitatively with increasing substrate concentration” and the “build-up of metabolite signal in human blood” value [4] was “no build-up of metabolite signal could be measured”. The “build-up of metabolite signal in rat blood” value [5] was “conversion of ethyl acetoacetate is seen”, the “factor” value [1] was about 2 and the “distribution of substrate signal (CSI map)” value ([6]; Morris hepatocellular carcinoma bearing rat, 0.4 mmol/kg i.v., 20 s acquisition) was “mainly observed in the tumour mass”. The “conversion in healthy liver during acquisition” value ([6]; healthy liver, 20 s acquisition time) was “almost completely converted”.

For `CCO[13C](=O)C(C)=O` [ethyl [1-^13C]-pyruvate], the uptake into brain [7] is listed as “rapid and preferential”.

For `CC(=O)C(=O)O` [[1-^13C]-pyruvate, reference compound], the “change of metabolite signal with increasing substrate concentration” value [3] was “unchanged going from 3 mM to 10 mM”, the “build-up of metabolite signal in human blood” value [4] was “build-up of lactate is significant” and the “build-up of metabolite signal in rat blood” value [5] was “build-up of lactate is significant”.

With `CCO[13C](=O)C[13C](C)=O` [ethyl [1,3-^13C2]-acetoacetate] the “build-up of hyperpolarized acetoacetate anion from hydrolysis” value [8] was “possible to follow the build-up of the product”, the “build-up of hyperpolarized acetoacetate anion from hydrolysis” value [9] was “possible to follow the build-up of the product” and the “ramping up rate of metabolite signal, healthy liver with respect to cancer tissue” value ([10]; localized spectroscopy) was at least 2. For the same compound, the “uptake and conversion in liver cells in vivo” value ([10]; healthy and diseased liver) was “taken up by both healthy and diseased liver cells and converted into its hyperpolarized metabolite” and the conversion in vivo [11] was “rapidly converted into acetoacetate”.

For `CCOC(=O)CCC(=O)O` [mono-ester], the “conversion (turnover) by CE1” value [1] was “not a substrate for CE1”.

In the case of `CCOC(C)=O` [ethyl acetate], the “factor” value [1] is reported as “ten times faster converted”.
